Measured values from patent US6355619B1, “Peptide tumor cell growth inhibitors” (Board of Regents, The University of Texas System, priority 1996, dated 2002).
pEC50: −log10 of the molar value.

Assays:
Hs 294T melanoma cells = assay: Cell growth assay, Hs 294T; assay type: cell-based, human
Description: FIG. 15A. The effect of Antileukinate on the growth of melanoma cells. Melanoma cell lines and a control liver cancer cell line (2×10^4 cells/well) in 500 μl were cultured in a 24 well tissue culture plate in the presence of various concentrations of Antileukinate for 3 d. The culture media were changed to fresh media containing the same concentration of Antileukinate every 24 hr during the incubation period. After incubation, the cells were collected and the cell number was counted using a hemocytometer. Hs 294 T cell line. Analysis of variance was used for multiple comparison.
The cell lines (2×10^4 cells/well) in 500 μl cell culture medium were grown in 24 well tissue culture plates. After the cells adhered to the plate, the supernatants were aspirated and 500 μl of media containing various concentrations of Antileukinate were added to the wells. The cells were cultured for period indicated in the text. The culture media were changed to fresh media every 24 hr. After incubation, the cells were detached with trypsin-EDTA solution (Life Technologies Inc., Gaithersburg, Md., containing 0.05% of trypsin and 0.53 mM of EDTA in Hanks Balanced Salt Solution without Ca^2+ and Mg^2+) and the cell number was counted using a hemocytometer.

[1] = target: T1, GRO binding to human neutrophils (Homo sapiens, UniProt P25025); assay: Binding of radioiodinated GRO/MGSA to human neutrophils; conditions: 1 nM GRO
T1 construct: endogenous in cells; host or cells: human neutrophils
Description: FIG. 10. Ac-RRWWCX (SEQ ID NO:23) Inhibits Binding of GRO and MIP2β to human neutrophils. Radioiodinated MIP2β and GRO/MGSA were mixed with various concentration of Ac-RRWWCR-NH2 and incubated at room temperature for 15 min. Neutrophil suspension (1×10^6 cells in 160 μl PBS containing 0.1% BSA) was added to 40 μl of the mixture and incubated for 90 min on ice. The radioactivity bound to the cells was separated from free radioactivity by centrifugation through an oil layer. The % binding inhibition was calculated as follows: [formula]
MIP2β and GRO/MGSA were radioiodinated using Bolten Hunter reagent. The radioiodinated components were mixed with various concentration of the Ac-RRWWCX-NH2 (SEQ ID NO:23) peptide and incubated at room temperature for 15 min. Neutrophil suspension (1×10^6 cells in 160 μl PBS containing 0.1% BSA) was added to 40 μl of the mixture and incubated for 90 min on ice. The radioactivity bound to the cells was separated from free radioactivity by centrifugation through an oil layer. The bound radioactivity is an indication of bound CXC intercrine peptide. The % binding inhibition in the presence of Ac-RRWWCX-NH2 (SEQ ID NO:23) was calculated as follows: [formula]
where B is bound radioactivity in the presence of the peptide, T is bound radioactivity in the absence of the peptide, and NSP is bound radioactivity in the presence of excess nonlabeled ligand.

C8161 melanoma cells = assay: Tumor cell growth, C8161; assay type: cell-based
[2] = tested on: lung adenocarcinoma cell line NCI-H441; assay: Tumor cell growth, NCI-H441; assay type: cell-based
A375SM melanoma cells = assay: Tumor cell growth, A375SM; assay type: cell-based
[3] = tested on: fMLP-induced neutrophil chemotaxis; assay: Neutrophil chemotaxis stimulated by fMLP; assay type: cell-based, human; conditions: 10 nM fMLP
Description: FIG. 7. The Effect of Ac-RRWWCR-NH2 (SEQ ID NO:1) on Neutrophil Chemotaxis. Chemotaxis was performed in the presence of increasing concentration of Ac-RRWWCR-NH2 (SEQ ID NO:1) in both upper and lower chamber. Stimulants added to lower chamber were 10 nM IL-8 (●), 10 nM fMLP (▪), or media alone (◯) as control. Analysis of variance was used for multiple comparison.
Chemotaxis was performed using the leading front method as described by Zigmond and Hirsh (1973). IL-8 or controls were placed in the lower well of a Boyden chamber. A five micron pore size, 100 μm. thick cellulose nitrate filter (Sartorius Filter,. Inc., San Francisco, Calif.) was placed on the surface and the chamber was then assembled. A 200 μl aliquot of the neutrophil preparation (1×10^6 cells/ml) in RPMI-1640 media containing 1% BSA was added to the top of the filter and incubated at 37° C. for 30 min. The filter was then fixed, stained and mounted on a glass microscope slide. The leading front was determined by the position of the leading two cells. The distance that the leading two cells had moved through the filter was measured for six fields on each filter. The measurements were made with four filters for each set of conditions.

[4] = tested on: adenocarcinoma from stomach Hs746T; assay: Tumor cell growth, Hs746T; assay type: cell-based
[5] = tested on: SP2/o mouse myeloma cell lines; assay: Growth of SP2/o myeloma cells stimulated by murine interleukin-6; assay type: cell-based
[6] = 100 μM peptide, 72 hr, trypan blue dye exclusion
Description: The viability of Hs 294T cells after the culture for 72 hr in the presence of Antileukinate. Melanoma cell line Hs 294T was cultured in the presence of various concentrations of Antileukinate for 72 hr. The viability of the cells was measured by means of trypan blue dye exclusion.

[7] = tested on: DU145 (adenocarcinoma of prostate); assay: Growth of DU145, MTT assay; assay type: cell-based; conditions: DU145, serum-starved, 24 hours
Description: FIG. 18. The effect of Antileukinate on growth of DU145 (adenocarcinoma of prostate) cell line. Serum-starved DU145 were incubated with the indicated concentrations of Antileukinate for 24 hours. MTT assay was then performed. Cell umber was decreased in a dose-dependent manner and there are significant differences from controls at concentrations greater than, or equal to 100 μM of Antileukinate (p<0.05).

[8] = tested on: adenocarcinoma from stomach AGS; assay: Tumor cell growth, AGS; assay type: cell-based

T1 sequence (P25025 whole entry): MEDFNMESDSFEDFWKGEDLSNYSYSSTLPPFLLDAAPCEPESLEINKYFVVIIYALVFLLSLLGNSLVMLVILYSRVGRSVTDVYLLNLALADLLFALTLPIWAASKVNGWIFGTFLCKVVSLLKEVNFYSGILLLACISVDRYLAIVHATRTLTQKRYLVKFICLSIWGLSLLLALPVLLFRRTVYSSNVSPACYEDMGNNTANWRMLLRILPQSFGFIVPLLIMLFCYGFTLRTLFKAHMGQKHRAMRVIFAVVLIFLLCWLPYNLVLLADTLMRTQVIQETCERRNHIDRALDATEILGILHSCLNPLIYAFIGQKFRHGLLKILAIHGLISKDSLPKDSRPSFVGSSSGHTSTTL

Substance: RRWWCR [Ac-RRWWCR-NH2]
- cell growth at 100 μM peptide (Hs 294T melanoma cells; 100 μM): suppressed the cell growth almost completely
- peptide concentration significantly inhibiting growth (Hs 294T melanoma cells; 72 hr): 10 µM
- pEC50 (Hs 294T melanoma cells; 72 hr, medium changed every 24 hr, read-out: ED50, cell growth inhibition): 4.74
- effect on binding of GRO to neutrophils [1]: effectively suppress the binding
- effect on cell growth (C8161 melanoma cells): suppresses the growth
- effect on cell growth [2]: inhibits growth
- effect on cell growth (A375SM melanoma cells): suppresses the growth
- effect on chemotaxis induced by fMLP [3]: had no effect on chemotaxis
- effect on cell growth [4]: inhibits growth
- effect on growth of SP2/o mouse myeloma cell lines [5]: did not affect the growth
- viability of Hs 294T cells [6]: greater than 92%
- concentrations with significant difference in cell number from controls (p<0.05) [7]: ≥ 100 µM
- effect on cell growth [8]: inhibits growth
